Literature values in patent US20110030103A1, “LIPOPEPTIDES AND LIPOPEPTIDE SYNTHETASES” (priority 2007, published 2011).
*1 amine or outer side, *2 acyl side, *3 side chain or, on linkers, in order; H or OH if unused. Where a SMILES comes first, the peptide text is derived from it. Bridges are numbered along the chain shown (N, C = ends). [ ]: non-standard residue; d: D form. X1 = CC(C)CCCCCCCCC[C@H](CC(=O)[*:1])O[*:2]

System: bacteria, including both Gram-negative and Gram-positive bacteria
Details: minimal antibacterial effects; background statement

CC(C)CCCCCCCCC[C@@H]1CC(=O)N[C@@H](CCC(=O)O)C(=O)N[C@@H](CC(C)C)C(=O)N[C@H](CC(C)C)C(=O)N[C@@H](C(C)C)C(=O)N[C@@H](CC(=O)O)C(=O)N[C@H](CC(C)C)C(=O)N[C@@H](CC(C)C)C(=O)O1 [surfactin] (EL[dL]VD[dL]L; linker N-C via X1)
minimum inhibitory concentration (MIC): 12 to 50 µg/mL
